Tested on: symptoms of diabetic gastroparesis
Assay: Phase 2 randomized, double-blind, placebo-controlled study METO-IN-002 of metoclopramide nasal spray: symptom scores (mGCSI-DD, GCSI-DD, PAGI-SYM, other endpoints)
Format: in vivo, human
Parameters: key to Stomach Fullness / Early Satiety / Feeling Full / Loss of Appetite / Bloating / Stomach Larger / Upper Abdominal Pain / Upper Abdominal Discomfort / mGCSI-DD (primary endpoint) / Nausea / Retching / Vomiting / Sheehan Disability Scales / Investigator Assessment of Overall Gastroparesis Severity / Subject Assessment of Overall Gastroparesis Severity / Investigator Assessment of Overall Treatment Effect / Subject Assessment of Overall Treatment Effect / Days w/o Vomiting / Days w/o Nausea / Days w/o Vomiting or Nausea / Days w/o Upper Abdominal Pain or Upper Abdominal Discomfort / Nausea Response by Response Threshold / GCSI-DD / Days w/o Vomiting or Retching &, No Use of Rescue Medication / Nausea Responder Analysis / Overall Severity of Gastroparesis Symptoms - Subject / PAGI-SYM Questionnaire / Nausea/Vomiting (listed under PAGI-SYM Questionnaire) / Bloating (listed under PAGI-SYM Questionnaire) / Upper Abdominal Pain/Discomfort (listed under PAGI-SYM Questionnaire) / Early Satiety (listed under PAGI-SYM Questionnaire): A=Favors Active; P=Favors Placebo
Settings: for mGCSI-DD (primary endpoint) / Bloating / Bloating (listed under PAGI-SYM Questionnaire) / Days w/o Nausea / Days w/o Upper Abdominal Pain or Upper Abdominal Discomfort / Days w/o Vomiting / Days w/o Vomiting or Nausea / Days w/o Vomiting or Retching &, No Use of Rescue Medication / Early Satiety / Early Satiety (listed under PAGI-SYM Questionnaire) / Feeling Full / GCSI-DD / Investigator Assessment of Overall Gastroparesis Severity / Investigator Assessment of Overall Treatment Effect / Loss of Appetite / Nausea / Nausea Responder Analysis / Nausea Response by Response Threshold / Nausea/Vomiting (listed under PAGI-SYM Questionnaire) / Overall Severity of Gastroparesis Symptoms - Subject / PAGI-SYM Questionnaire / Retching / Sheehan Disability Scales / Stomach Fullness / Stomach Larger / Subject Assessment of Overall Gastroparesis Severity / Subject Assessment of Overall Treatment Effect / Upper Abdominal Discomfort / Upper Abdominal Pain / Upper Abdominal Pain/Discomfort (listed under PAGI-SYM Questionnaire) / Vomiting: Week 4, vs placebo
Procedure: Example 1: A Multicenter, Randomized, Double-Blind, Placebo-Controlled, Parallel Group, Dose-Ranging Clinical Study to Evaluate the Efficacy and Safety of Metoclopramide Nasal Spray Solution in Diabetic Subjects with Gastroparesis
The objectives of this study were to evaluate the safety and the effectiveness of two doses of metoclopramide nasal spray solution, 10 mg and 14 mg, compared to placebo in reducing the symptoms of diabetic gastroparesis and to assess the plasma concentrations of two doses of metoclopramide nasal spray in subjects with diabetic gastroparesis following a single dose and at steady state. The aforementioned dosages for the treatment and control of gastroparesis were administered before meals and/or before bed time. Subjects who met the entry criteria after the Washout Period (Day −7 to Day −1) were randomized using an IVRS, to metoclopramide nasal spray 10 mg, 14 mg, or placebo, in roughly equal numbers (approximately 1:1:1) using a predetermined randomization schedule employing permuted blocks. Randomization was preformed centrally.
Metoclopramide nasal spray solution, 200 mg/mL base (as monohydrochloride monohydrate) is a clear colorless to pale-yellow aqueous solution manufactured for Evoke Pharma. The metoclopramide nasal spray was packaged in a 10 mL amber glass vial mounted with a metered nasal spray pump. The metered dose vial delivered a 50 μL or 70 μL spray (10 mg or 14 mg of metoclopramide base respectively) with each actuation. One 10 mL vial contained sufficient metoclopramide nasal spray to deliver 120 doses of 10 mg or 14 mg.
A vehicle control was used as the placebo for metoclopramide nasal spray solution. The placebo spray was packaged in a 10 mL amber glass vial mounted with a metered nasal spray pump. The metered dose vial delivered a 50 μL spray with each actuation. One 10 mL vial contained sufficient placebo to deliver 120 doses. The delivery of either a 50 μL or 70 μL spray is indistinguishable to the subject or study staff.
A 7-day Washout Period preceded randomization. During this time, and for the duration of the study, subjects were asked to discontinue use of all medications that are known to ameliorate or exacerbate symptoms associated with diabetic gastroparesis. Subjects were trained on the use of an interactive voice response system (IVRS) to record the severity of nine gastroparesis symptoms of the GCSI-DD and additional symptoms such as: severity of abdominal pain and abdominal discomfort, number of hours of nausea, number of episodes of vomiting, and overall severity of gastroparesis symptoms in a daily diary. The IVRS was used during the treatment period for self-reported assessments. Subjects completed these diary assessments via the IVRS each evening.
Subjects with a mean GCSI-DD total score of <2.0 or >4.0 during the 7-day Washout Period were excluded from the study.
At the Randomization Visit (Day 0), the Patient Assessment of Upper Gastrointestinal Disorders Symptoms (PAGI-SYM) Questionnaire, and disability questionnaires were administered to the subject and the Investigator and subject assessed overall gastroparesis symptom severity (OGS) prior to taking study drug. Subjects began taking the study drug at the clinical site with a single dose on Day 0. The subjects returned to the clinic for safety and efficacy evaluations on Visits 4, 5, 6, and 7 (Days 7, 14, 21, and 28).
At each scheduled study visit to the clinical study site, the IVRS daily diary compliance was reviewed. In addition, at Visit 5 (Day 14), the PAGI-SYM Questionnaire was administered to the subject and the Investigator and subject assessed OGS severity. At the Final Visit (Day 28) subjects took their last dose of study drug at the clinical site and returned their vial of unused/remaining study drug. The subject completed the PAGI-SYM, and disability questionnaires. The Investigator and subject assessed OGS and overall treatment effect (OTE). […]

[1] = males, 10 mg IN four times daily
[2] = males, 10 mg IN four times daily, listed as Metoclopramide
[3] = males, 14 mg IN four times daily

## CCN(CC)CCNC(=O)c1cc(Cl)c(N)cc1OC [metoclopramide, -amino-5-chloro-N-(2-(diethylamino)ethyl)-2-methoxybenzamide]
females, 14 mg IN four times daily
  mGCSI-DD (primary endpoint): A (p < 0.05)
females, 14 mg IN four times daily, listed as Metoclopramide
  Mean mGCSI-DD total score at Week 4: 1.7
females, 14 mg IN vs Metoclopramide 10 mg
  Difference of Least Square Means, mGCSI-DD change from Baseline to Week 4: −0.00
females, 14 mg IN vs placebo
  Difference of Least Square Means, mGCSI-DD change from Baseline to Week 4: −0.38
Male subjects, 11 symptoms collected
  Symptoms that showed a positive trend: 1 of 11
males, 10 mg IN and 14 mg IN arms, Baseline to Week 4
  Statistically significant improvement in mGCSI-DD score (in words): did not experience significant improvement
[1]
  Mean Change from Baseline to Week 4 in mGCSI-DD: −1.2 (−1.2)
  Mean mGCSI-DD total score at Week 4: 1.6 (1.6)
  Bloating: P
  Bloating (listed under PAGI-SYM Questionnaire): P
  Days w/o Nausea: P
  Days w/o Upper Abdominal Pain or Upper Abdominal Discomfort: P
  Days w/o Vomiting: P
  Days w/o Vomiting or Nausea: P
  Days w/o Vomiting or Retching &, No Use of Rescue Medication: A
  Early Satiety: P
  Early Satiety (listed under PAGI-SYM Questionnaire): P
  Feeling Full: P
  GCSI-DD: P
  Investigator Assessment of Overall Gastroparesis Severity: P
  Investigator Assessment of Overall Treatment Effect: A
  Loss of Appetite: P
  Nausea: P
  Nausea Responder Analysis: P
  Nausea Response by Response Threshold: P
  Nausea/Vomiting (listed under PAGI-SYM Questionnaire): P
  Overall Severity of Gastroparesis Symptoms - Subject: A
  PAGI-SYM Questionnaire: P
  Retching: P
  Sheehan Disability Scales: A
  Stomach Fullness: P
  Stomach Larger: P
  Subject Assessment of Overall Gastroparesis Severity: P
  Subject Assessment of Overall Treatment Effect: A
  Upper Abdominal Discomfort: P
  Upper Abdominal Pain: P
  Upper Abdominal Pain/Discomfort (listed under PAGI-SYM Questionnaire): P
  Vomiting: A
  mGCSI-DD (primary endpoint): P
[2]
  Mean Change from Baseline to Week 4 in mGCSI-DD: −1.2
  Mean mGCSI-DD total score at Week 4: 1.6
males, 10 mg IN vs placebo
  Difference of Least Square Means, mGCSI-DD change from Baseline to Week 4: 0.18
[3]
  Mean Change from Baseline to Week 4 in mGCSI-DD: −0.9
  Mean mGCSI-DD total score at Week 4: 1.7 (1.7)
  Bloating: P
  Bloating (listed under PAGI-SYM Questionnaire): P (p < 0.05)
  Days w/o Nausea: P
  Days w/o Upper Abdominal Pain or Upper Abdominal Discomfort: P (p < 0.05)
  Days w/o Vomiting: P
  Days w/o Vomiting or Nausea: P
  Days w/o Vomiting or Retching &, No Use of Rescue Medication: A
  Early Satiety: P (p < 0.05) and P
  Early Satiety (listed under PAGI-SYM Questionnaire): P (p < 0.05)
  Feeling Full: P
  GCSI-DD: P
  Investigator Assessment of Overall Gastroparesis Severity: P
  Investigator Assessment of Overall Treatment Effect: P
  Loss of Appetite: P (p < 0.05)
  Nausea: P
  Nausea Responder Analysis: P
  Nausea Response by Response Threshold: P
  Nausea/Vomiting (listed under PAGI-SYM Questionnaire): P
  Overall Severity of Gastroparesis Symptoms - Subject: A
  PAGI-SYM Questionnaire: P
  Retching: P
  Sheehan Disability Scales: A
  Stomach Fullness: P
  Stomach Larger: P (p < 0.05)
  Subject Assessment of Overall Gastroparesis Severity: P
  Subject Assessment of Overall Treatment Effect: P
  Upper Abdominal Discomfort: P
  Upper Abdominal Pain: P
  Upper Abdominal Pain/Discomfort (listed under PAGI-SYM Questionnaire): P
  Vomiting: A
  mGCSI-DD (primary endpoint): P
males, 14 mg IN four times daily, listed as Metoclopramide
  Mean mGCSI-DD total score at Week 4: 1.7
males, 14 mg IN vs Metoclopramide 10 mg
  Difference of Least Square Means, mGCSI-DD change from Baseline to Week 4: 0.14
males, 14 mg IN vs placebo
  Difference of Least Square Means, mGCSI-DD change from Baseline to Week 4: 0.32

From patent publication US20200405666A9, “TREATMENT OF SYMPTOMS ASSOCIATED WITH FEMALE GASTROPARESIS” (priority 2011, published 2020)
